“And” between values parts separate entries of the source, which are not always exact repeats. Identical values can stand only once.
Experiments:
wild type tobacco plants = assay: Glass house spray test on tobacco, percent damage; type: in vivo; conditions: 14 DAT
Description: Once rooted, plantlets are transferred from agar and potted into 50% peat, 50% John Innes Soil No. 3 with slow-release fertilizer in 3 inch round pots and left regularly watered to establish for 8-12d in the glass house. Glass house conditions are about 24-27° C. day; 18-21° C. night and approximately a 14h photoperiod. Humidity is adjusted to ˜65% and light levels used are up to 2000 μmol/m^2 at bench level.
Three transgenic populations of about forty tobacco plants and comprising, a glucosyl transferase gene encoding either zmBX8 (SEQ ID NO 2) or zmBX9 (SEQ ID NO 1) were thus produced. A sub-set of about 30 plants were selected on the basis of similar size from each population for spray testing. The plants were then sprayed with 30 g/ha of Compound VI. VI was mixed in water with 0.2-0.25% X-77 surfactant and sprayed from a boom on a suitable track sprayer moving at 2 mph with the nozzle about 2 inches from the plant tops. Spray volume was 200 l/ha. Plants were assessed for damage and scored at 7 and 14 days after treatment (DAT).
In a further example, Zea mays BX8 or BX9 or orthologues of BX8/9, are altered to carry amino acid variants at various positions which increase tolerance to the alcohol and aminal PSII herbicides as described in the example above. DNA sequences that encode these polypeptides (optimized for tobacco or, optionally, codon optimized according to a target crop such as soybean) were prepared for tobacco transformation as described in example 10. […] Transgenic tobacco populations expressing SEQ ID NOs 16 and 17 were generated alongside a population expressing the parental zmBX9 sequence (SEQ ID 1). These populations were sprayed with herbicide V and VI at rates of 200 and 500 g/ha. Plants were assessed for damage and scored at 14 days after treatment (DAT). The results are depicted in Table 19 and also in FIG. 6.

[1] = biological target: T1, SEQ ID 33, mutant bx-type glucosyl transferase (Zea mays, UniProt Q8W2B7, A285K); assay: LC/MS glucosyl transferase assay (glucoside peak area), purified enzyme; type: biochemical; conditions: about 60 min, ~15 pmol enzyme, relative quantification only
T1 construct: 33; 1.70E+05; 3.59E+07; 9.27E+06; His tag; made in house
Description: (§1) In an alternative method for assaying the various enzymes, the test glucosyl transferase enzyme is reacted with substrates exactly as above except that the assay is stopped by adding an equal volume of acetonitrile. Alternatively 50 or 100 μl samples from assay reactions are added to 500 μl ethyl acetate to stop the reaction. In this case samples are then vortexed and 400 μl of the ethyl acetate partition removed, dried down, and resuspended in 100 μl 80:20 acetonitrile/water. The formation of product gluco side and/or disappearance of substrate test herbicide is then monitored directly by LC/MS. Samples are analyzed by LC-MS using an Agilent 1290 liquid chromatography system and Thermo Q-Exactive mass spectrometer. The chromatography is achieved on a Waters Acquity C18 BEH (50×2.1 mm) 1.7 μm particle size column, using a 6 minute gradient run of Water (0.2% formic acid) and Acetonitrile. The Q-Exactive is operated in positive ionisation electrospray mode, using Full scan-AIF mode, at 35,000 resolution, between 100-800 m/z. All analytes are identified from the full scan data to within at least 5 ppm accuracy of their predicted pseudo-molecular ion [M+H]^+ m/z value. In order to obtain quantitative data standard curves are run using herbicides and herbicide glucosides synthesized as standards. Where these synthetic glucosides were not available the LC/MS assay could only be used to provide relative data.
(§2) DNA sequences, optimized for E. coli codon usage, were cloned, expressed and the various proteins purified and assayed as described in the foregoing examples. Using the UDP assay (as described in examples 1, 3 and 6) the data obtained from the Zea mays bx8 w/t protein and its variants was noisy due to relatively high background rates in DMSO reagent blanks. The values reported in the table 15 were thus monitored by LC/MS as described in example 1.

[2] = system: SEQ ID 47, mutant bx-type glucosyl transferase; assay: as above; type: biochemical; conditions: about 60 min, ~15 pmol enzyme, nd = not detectable
Description: as §1, §2

[3] = biological target: T2, SEQ ID 31, mutant bx-type glucosyl transferase (Zea mays, UniProt Q8W2B7, S121V); assay: as above; type: biochemical; conditions: about 60 min, ~15 pmol enzyme, relative quantification only
T2 construct: 31; nd; 8.84E+06; 5.57E+06; His tag; made in house
Description: as §1, §2

[4] = biological target: T3, SEQ ID NO 20, mutant of Zea mays bx9 glucosyl transferase (Zea mays, UniProt B4G072, A281K/A334K/F21Y/L194V/M279F/S117V); type: biochemical; conditions: lower block, concentration printed only in upper block: V 0.300, VII 0.210; IV, VIII, XI, XXI, XX, XVIII, XVI, XV, XIV 0.200; others 1.000 mM
T3 construct: His tag (C); made in house
T3 sequence (B4G072 whole entry F21Y/S117V/L194V/M279F/A281K/A334K): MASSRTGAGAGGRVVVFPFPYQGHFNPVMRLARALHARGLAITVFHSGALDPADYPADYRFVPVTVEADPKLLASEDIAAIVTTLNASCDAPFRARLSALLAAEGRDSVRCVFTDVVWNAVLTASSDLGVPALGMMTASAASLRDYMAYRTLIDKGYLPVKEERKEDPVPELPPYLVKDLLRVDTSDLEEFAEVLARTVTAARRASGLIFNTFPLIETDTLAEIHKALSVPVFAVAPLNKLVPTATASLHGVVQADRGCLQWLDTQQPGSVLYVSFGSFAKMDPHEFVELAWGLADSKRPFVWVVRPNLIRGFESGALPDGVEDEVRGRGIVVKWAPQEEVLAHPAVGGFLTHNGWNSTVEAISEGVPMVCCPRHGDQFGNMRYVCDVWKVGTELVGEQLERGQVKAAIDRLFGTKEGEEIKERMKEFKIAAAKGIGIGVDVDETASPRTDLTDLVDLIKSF

T1 sequence (Q8W2B7 whole entry A285K): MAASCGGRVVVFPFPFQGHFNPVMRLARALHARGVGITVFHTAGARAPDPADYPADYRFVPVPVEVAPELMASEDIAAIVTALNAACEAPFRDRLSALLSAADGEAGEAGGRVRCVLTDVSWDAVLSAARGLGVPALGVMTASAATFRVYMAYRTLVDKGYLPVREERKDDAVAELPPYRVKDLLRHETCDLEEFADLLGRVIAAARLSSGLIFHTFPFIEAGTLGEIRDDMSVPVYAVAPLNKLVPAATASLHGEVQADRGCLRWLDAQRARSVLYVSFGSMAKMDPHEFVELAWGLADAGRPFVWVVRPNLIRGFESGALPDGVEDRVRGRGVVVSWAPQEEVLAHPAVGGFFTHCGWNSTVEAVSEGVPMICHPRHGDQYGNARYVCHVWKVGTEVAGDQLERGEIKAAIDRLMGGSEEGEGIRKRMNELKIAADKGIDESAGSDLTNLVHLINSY
T2 sequence (Q8W2B7 whole entry S121V): as the sequence (Q8W2B7 whole entry A285K) above, with S121V, K285A counted along it

Row | SMILES | percent damage (wild type tobacco plants; 200 gai/ha V, WT tobacco plants 1-9) [%] | percent damage (wild type tobacco plants; 500 gai/ha V, WT tobacco plants 1-9) [%] | integrated peak area of beta-glucoside product [1] | integrated peak area of beta-glucoside product [2] | integrated peak area of beta-glucoside product [3] | Activity [4] [pmol/sec/pmol enzyme] | percent damage (wild type tobacco plants; 30 g/ha compound VI, plants A, B, C) | percent damage (wild type tobacco plants; 500 gai/ha VI, WT tobacco plants 1-9) [%]
1 | CN1CC(O)N(c2cc(C(F)(F)F)ccn2)C1=O (stereo not shown) [Compound V] | 100 | 100 | 9.27E+06 and 9.76E+06 | 8.67E+05 and 6.30E+05 | 5.57E+06 and 5.59E+06 | 1.889 | – | –
2 | Cc1cnc(N2C(=O)N(C)CC2O)cc1C(F)(F)F (stereo not shown) [XVIII] | – | – | – | – | – | 1.141 | – | –
3 | CN1CC(O)N(c2cc(C(F)(F)F)c(Cl)cn2)C1=O (stereo not shown) [XI] | – | – | – | – | – | 1.046 | – | –
4 | CON1C(=O)N(c2cc(C(F)(F)F)ccn2)C(O)[C@@H]1C (stereo partly shown) [Compound VI] | – | – | 3.59E+07 and 3.45E+07 | 1.68E+05 and 1.05E+05 | 8.84E+06 and 1.04E+07 | – | 75% and 95% and 85% | 100
